From patent US20140072617A1, “METHOD FOR PREVENTING OR SLOWING DOWN THE APPEARANCE OF THE EFFECTS OF SKIN AGEING USING A TOCOPHERYL PHOSPHATE IN LIPOSOMES” (LVMH RECHERCHE, priority 2007, published 2014) come the findings set out here.

Assay [1] deals with normal human keratinocytes (NHKs). The assay can be described thus: Apoptosis of normal human keratinocytes after H2O2 oxidative stress (JC-1/TOTO-3 cytometry). The assay is classed as cell-based. To be noted: for % NHKs undergoing apoptosis: pretreated 24 h at 10 μg/ml, then 1 mM H2O2 for 3 h, nontreated H2O2 control 54.82, nontreated control 5.48. How it is done:
The cells undergoing apoptosis (programmed cell death) are examined on normal human keratinocytes (NHKs) in culture.
The cells are pretreated or not pretreated (controls) for 24 h with the vitamin E derivatives in solution at 10 μg/ml.
The cells are subsequently subjected to oxidative stress (1 mM H2O2 for 3 h).
The proportion of cells undergoing apoptosis is determined by cytometry using the fluorescent probes JC-1 (measurement of mitochondrial transmembrane potential) and TOTO-3 (measurement of plasma membrane permeability).
The apoptotic cells are JC-1-negative (corresponding to a drop in the mitochondrial transmembrane potential) and TOTO-3-negative (corresponding to an absence of alteration of the plasma membrane).
This method has been published (Zullani et al. Cytometry part A, 2003, 54A: 100-108).

In assay [2] the test system is epidermal stem cells. The assay can be described thus: Clonogenicity test on keratinocyte colonies derived from epidermal stem cells after oxidative stress. The format is cell-based, human. To be noted: 1 μg/ml for 24 h, then hydrogen peroxide 15 minutes, 7 days of culture; versus stressed controls without treatment. From the text:
In order to study these epidermal stem cells in the basal cell layer of the epidermis, the test carried out, known as clonogenecity test, is based on the ability that the stem cells have of adhering, in vitro, to a culture support and of dividing so as to generate a large population of daughter cells grouped together in the form of colonies (Barrandon Y., Green H., Three clonal types of keratinocyte with different capacities for multiplication, […], 2302-2306 (1987), and Barrandon Y., Biologie des cellules souches épidermiques [Epidermal Stem Cell Biology], Ann. Dermatol. Venereol. Suppl. 2: 285-286, (1998)).
Analysis of the number and of the size of the colonies after culture makes it possible to characterize the epidermal stem cells.
The first step of isolating these cells consists in preparing a suspension of epidermal cells (Germain L et al., Improvement of human keratinocyte isolation and culture using thermolysin, Burns 19, 99-104 (1993)).
These cells are subsequently seeded onto feeder cells (3T3 fibroblasts), the mitotic activity of which is blocked with mitomycin. […]
After 7 days of culture, the cell colonies formed from each initial keratinocyte are coloured and counted by image analysis according to their size so as to evaluate the amount of stem cells of the initial culture. […]

As to `Cc1c(C)c2c(c(C)c1O)CC[C@@](C)(CCC[C@H](C)CCC[C@H](C)CCCC(C)C)O2` [alpha-tocopherol], the “% NHKs undergoing apoptosis” value in assay [1] was found to be 58.82%.
For the compound `Cc1c(C)c2c(c(C)c1OP(=O)([O-])[O-])CCC(C)(CCCC(C)CCCC(C)CCCC(C)C)O2.[Na+].[Na+]` (stereo not drawn) [sodium alpha-tocopheryl phosphate], in assay [2], the “number of large colonies (>4 mm^2) compared with the controls” value is recorded as “+104%”.
Regarding `Cc1c(C)c2c(c(C)c1OC(=O)c1cc(O)ccc1O)CCC(C)(CCCC(C)CCCC(C)CCCC(C)C)O2` (stereo not drawn) [tocopheryl gentisate], the “% NHKs undergoing apoptosis” value in assay [1] was determined as 60.67%.
On to alpha-tocopheryl phosphate, for which the “protective effect against oxidative stress for the keratinocytes (in words)” value in assay [1] (10 μg/ml 24 h, 1 mM H2O2 3 h, compared with control, vitamin E and the other derivatives) is “significantly greater than that observed for the control, and also than that observed for vitamin E or the other derivatives”. Also, the “% NHKs undergoing apoptosis” value in assay [1] is recorded as 32.79%.
For tocotrienol, in assay [1], the “% NHKs undergoing apoptosis” value is on record as 42.85%.
